The source of these data is patent publication US20040038855A1 (priority 1999, published 2004).

For one test, the target named is T1, human GALR2 receptor (Homo sapiens, UniProt O43603).
T1 construct: expressed in transfected cells
T1 sequence (O43603 1-387): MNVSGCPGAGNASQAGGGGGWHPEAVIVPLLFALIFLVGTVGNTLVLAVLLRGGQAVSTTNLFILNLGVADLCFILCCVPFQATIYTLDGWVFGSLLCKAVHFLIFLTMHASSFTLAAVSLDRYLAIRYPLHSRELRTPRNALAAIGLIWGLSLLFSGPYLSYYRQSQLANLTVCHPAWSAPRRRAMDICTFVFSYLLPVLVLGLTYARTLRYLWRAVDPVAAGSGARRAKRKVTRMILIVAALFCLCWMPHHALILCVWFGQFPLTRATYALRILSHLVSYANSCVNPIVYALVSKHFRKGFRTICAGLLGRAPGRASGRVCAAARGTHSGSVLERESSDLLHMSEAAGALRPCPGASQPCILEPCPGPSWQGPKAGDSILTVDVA
Description: Binding affinity at the human GALR2 receptor.

The target of another test is T2, rat 5HT2C receptor (Rattus norvegicus, UniProt P08909).
T2 construct: expressed in transfected cells
T2 sequence (P08909 33-460): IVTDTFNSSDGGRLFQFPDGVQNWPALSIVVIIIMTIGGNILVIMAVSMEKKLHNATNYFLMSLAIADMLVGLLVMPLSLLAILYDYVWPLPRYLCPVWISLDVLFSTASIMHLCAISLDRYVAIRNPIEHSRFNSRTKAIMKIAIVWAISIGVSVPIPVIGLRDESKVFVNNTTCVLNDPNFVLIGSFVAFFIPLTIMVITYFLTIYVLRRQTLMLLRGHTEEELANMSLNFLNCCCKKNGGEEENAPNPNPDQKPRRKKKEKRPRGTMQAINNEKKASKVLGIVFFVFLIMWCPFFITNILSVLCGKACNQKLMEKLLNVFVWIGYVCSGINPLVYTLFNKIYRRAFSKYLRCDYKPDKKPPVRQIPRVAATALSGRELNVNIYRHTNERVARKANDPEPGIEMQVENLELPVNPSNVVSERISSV
Description: Binding affinity at the rat 5HT2C receptor. The method, boiled down:
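Radioligand binding at recombinant rat 5HT2C receptor expressed in a heterologous system, run per a published method.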

The target of test [1] is T3, human Histamine H1 receptor (Homo sapiens, UniProt P35367).
T3 construct: expressed in transfected cells
The test can be described thus: Binding affinity at the human histamine H1 receptor. The essentials: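 Receptor binding read-out throughout; membranes expressing human D1 or D2 receptor were used for those two targets.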

The next test concerns the target T4, human α2A adrenoceptor (Homo sapiens, UniProt P08913).
T4 construct: expressed in transfected cells
T4 sequence (P08913 1-465): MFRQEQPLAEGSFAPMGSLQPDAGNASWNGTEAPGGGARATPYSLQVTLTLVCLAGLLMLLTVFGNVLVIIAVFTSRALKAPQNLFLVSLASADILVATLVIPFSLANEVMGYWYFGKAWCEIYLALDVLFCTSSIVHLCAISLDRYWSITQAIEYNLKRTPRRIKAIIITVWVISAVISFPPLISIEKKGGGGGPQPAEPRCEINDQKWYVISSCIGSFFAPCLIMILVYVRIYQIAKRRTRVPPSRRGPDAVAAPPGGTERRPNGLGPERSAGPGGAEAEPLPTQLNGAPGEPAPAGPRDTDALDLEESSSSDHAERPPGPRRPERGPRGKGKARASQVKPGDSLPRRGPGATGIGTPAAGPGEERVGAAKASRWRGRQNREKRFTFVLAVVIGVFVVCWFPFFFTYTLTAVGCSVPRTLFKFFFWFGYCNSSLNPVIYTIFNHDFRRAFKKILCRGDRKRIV
The test can be described thus: Binding affinity at the human α2A adrenergic receptor. The text has this: Other receptors: Cell membranes expressing human dopamine D1, D2, D4 and rat D3 receptors were purchased through BioSignal, Inc. (Montreal, Canada). Binding assays using the histamine H1 receptor; dopamine receptors; and α1A, α1B, and α2 adrenergic receptors may be carried out according to the procedures described in U.S. Pat. No. 5,780,485, the disclosure of which is hereby incorporated by reference in its entirety into this application. Binding assays using the dopamine D5 receptor may be carried out according to the procedures described in U.S. Pat. No. 5,882,855, the disclosure of which is hereby incorporated by reference in its entirety into this application. Binding assays for the human α1D adrenergic receptor may be carried out according to the procedures described in U.S. Pat. No. 6,156,518, the disclosure of which is hereby incorporated by reference in its entirety into this application.

The target in the next test is human MCH1 receptor (Homo sapiens, UniProt Q99705). The test can be described thus: Intracellular calcium response to MCH in COS-7 cells transfected with MCH1 (fluo-3, FLIPR): antagonist potency. In kind it is cell-based. Set-up: expressed in transfected cells; host or cells: COS-7. An excerpt:
MCH1 antagonist compounds were identified by their ability to inhibit the MCH-elicited response. […]. From the IC50 values, the antagonist potency (Kb)was derived using the Cheng-Prussof correction (Lazareno and Birdsall, 1993). […]
For orientation: Calcium flux is commonly read through the fluorescence of an indicator in the cells.

Test [2] has as its target T5, human H2 histamine receptor (Homo sapiens, UniProt P25021).
T5 construct: expressed in transfected cells
Description: Binding affinity at the human histamine H2 receptor. An excerpt: Binding studies for the β-adrenoceptor may be performed according to the method of Riva and Creese, 1989. Binding assays for the remainder of the receptors may be carried out according to the procedures described in U.S. Pat. No. 5,780,485, the disclosure of which is hereby incorporated by reference in its entirety into this application.

Where a name gives a salt, the structure may show the parent alone. Read-outs that look alike come from different tables or passages of the source.

T5 sequence (P25021 whole entry): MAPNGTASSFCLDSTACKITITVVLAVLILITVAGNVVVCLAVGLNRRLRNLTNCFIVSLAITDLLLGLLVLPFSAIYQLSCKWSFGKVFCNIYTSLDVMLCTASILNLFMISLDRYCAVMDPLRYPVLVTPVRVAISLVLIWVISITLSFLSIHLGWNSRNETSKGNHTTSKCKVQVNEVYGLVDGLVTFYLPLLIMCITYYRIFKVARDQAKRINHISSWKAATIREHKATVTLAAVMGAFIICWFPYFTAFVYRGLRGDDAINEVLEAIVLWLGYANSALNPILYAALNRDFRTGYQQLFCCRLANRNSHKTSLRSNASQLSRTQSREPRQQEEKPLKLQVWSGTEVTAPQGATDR
T3 sequence (P35367 whole entry): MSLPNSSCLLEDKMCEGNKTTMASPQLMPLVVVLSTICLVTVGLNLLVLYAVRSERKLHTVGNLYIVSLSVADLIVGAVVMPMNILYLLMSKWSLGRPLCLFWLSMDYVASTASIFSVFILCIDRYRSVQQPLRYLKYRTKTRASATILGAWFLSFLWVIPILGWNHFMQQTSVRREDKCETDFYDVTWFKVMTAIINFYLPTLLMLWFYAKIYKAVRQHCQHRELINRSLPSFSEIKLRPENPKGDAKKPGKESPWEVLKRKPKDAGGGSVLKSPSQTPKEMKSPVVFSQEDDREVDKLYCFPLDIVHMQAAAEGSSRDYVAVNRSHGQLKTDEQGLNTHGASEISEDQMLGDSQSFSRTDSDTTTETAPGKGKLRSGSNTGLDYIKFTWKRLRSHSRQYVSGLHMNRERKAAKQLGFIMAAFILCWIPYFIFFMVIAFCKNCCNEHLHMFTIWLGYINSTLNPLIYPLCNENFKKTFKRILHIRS
Chain of human MCH1 receptor (Q99705 whole entry): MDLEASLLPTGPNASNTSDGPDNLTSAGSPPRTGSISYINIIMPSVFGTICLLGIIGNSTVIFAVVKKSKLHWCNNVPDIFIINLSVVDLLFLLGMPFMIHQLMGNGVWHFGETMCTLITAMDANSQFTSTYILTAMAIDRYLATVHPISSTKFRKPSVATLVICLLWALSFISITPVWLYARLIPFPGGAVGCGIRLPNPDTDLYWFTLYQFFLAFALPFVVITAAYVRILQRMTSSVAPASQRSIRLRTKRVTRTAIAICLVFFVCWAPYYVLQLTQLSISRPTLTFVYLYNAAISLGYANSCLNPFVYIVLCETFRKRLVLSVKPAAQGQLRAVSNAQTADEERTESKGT

What is called Ki is a measure of affinity in units of concentration, obtained from inhibition or displacement. The Kb is the equilibrium dissociation constant of an antagonist, usually derived from a functional assay. Turning to “2-(3,4-DIFLUOROPHENYL)4,5-DIHYDROIMIDAZOLE-1-CARBOXYLIC ACID {3-[4-PHENYL-4-(4-BROMO-5-METHYLTHIOPNEN-2-YL)]-PROPYL}-AMIDE [Example 19]”, the Ki on human GALR2 receptor (Table 3a, read-out: hGALR2 Ki) was above 50 µM; at human GALR2 receptor (Table 3b, read-out: hGALR2 Ki) it was above 50 µM; at rat 5HT2C receptor (Table 3a, read-out: r5HT2C Ki), 11.7 µM; on rat 5HT2C receptor (Table 3b, read-out: r5HT2C Ki) it was 11.7 µM; in test [1] (Table 3e, read-out: hH1 Ki), 0.011 µM; at human α2A adrenoceptor (Table 3d, read-out: hα2A Ki) it was 0.285 µM. Besides, the Kb at human MCH1 receptor (Table 3a, antagonist potency, read-out: hMCH1 Kb) came out at 7 nM; at human MCH1 receptor (Table 3b, antagonist potency, read-out: hMCH1 Kb), 7 nM; on human MCH1 receptor (antagonist potency, inhibition of the response to 500 nM MCH, IC50 corrected by Cheng-Prussof, read-out: Kb (nM) hMCH1), 7 nM.
Take `COC(=O)C1=C(C)NC(=O)N(C(=O)NCCCN2CCC3(CC2)OCc2ccccc23)C1c1ccc2nonc2c1` (single isomer, unassigned) [Example 18, HYDROCHLORIDE]: the Ki was above 50 µM on human GALR2 receptor; above 50 µM on human GALR2 receptor (read-out: hGALR2 Ki, Table 3b); 32.6 µM at rat 5HT2C receptor (Table 3a, read-out: r5HT2C Ki); 0.031 µM in test [1]; 0.057 µM on human α2A adrenoceptor; 0.944 µM in test [2]. Besides, the antagonist equilibrium constant (Kb) on human MCH1 receptor is 1 nM.
Take `CCC1=C(C(=O)O)C(c2ccc(F)c(F)c2)N(C(=O)NCCCN2CCC3(CC2)OCc2ccccc23)C(=O)N1` (single isomer, unassigned; (+)) [Example 4, (+)-1,2,3,6-TETRAHYDRO-1-1N-[4-(BENZO-4′,5′(H)FURAN)PIPERIDIN-1-YL]PROPYL}-CARBOXAMIDO-4-ETHYL-6-(3,4-DIFLUOROPHENYL)-2-OXO-PYRIMIDINE-5 CARBOXYLIC ACID HYDROCHLORIDE]: the Ki on human GALR2 receptor (Table 3a, read-out: hGALR2 Ki) is above 50 µM; on human GALR2 receptor (Table 3b, read-out: hGALR2 Ki), above 50 µM; on rat 5HT2C receptor (Table 3a, read-out: r5HT2C Ki), 34.8 µM. Besides, at human MCH1 receptor (read-out: Kb (nM) hMCH1), the Kb was 187 nM.
For the compound `COCC1=C(C(=O)OC)C(c2ccc(F)c(F)c2)N(C(=O)NCCCN2CCC(c3cccc(NC(C)=O)c3)CC2)C(=O)N1` (single isomer, unassigned; (-)) [Example 1, (−)-1,2,3,6-TETRAHYDRO-1-{N-[4-(3,-ACETAMIDO)-PHENYLPIPERIDIN-1-YL]PROPYL}CARBOXAMIDO-4-METHOXYMETHYL-6-(3,4-DIFLUORO-PHENYL)-2-OXOPYRIMIDINE-5-CARBOXYLIC ACID METHYL ESTER], the Ki on human GALR2 receptor (Table 3a, read-out: hGALR2 Ki) was above 50 µM; on human GALR2 receptor (Table 3b, read-out: hGALR2 Ki), above 50 µM; at rat 5HT2C receptor (Table 3a, read-out: r5HT2C Ki) it was above 50 µM; on rat 5HT2C receptor (Table 3b, read-out: r5HT2C Ki), above 50 µM. In addition, the Kb at human MCH1 receptor (read-out: Kb (nM) hMCH1) is 42 nM.
Consider `CCCCN(CCCC)c1ccc(CN2CCC(CNC(=O)N3C(=O)NC(C)=C(C(=O)OC)C3c3ccc4nonc4c3)CC2)cc1` (centres unmarked) [Example 6], for which the Ki came out at 14.9 µM on human GALR2 receptor (Table 3a, read-out: hGALR2 Ki); 14.9 µM on human GALR2 receptor (Table 3b, read-out: hGALR2 Ki); 25.5 µM at rat 5HT2C receptor (Table 3a, read-out: r5HT2C Ki); 25.5 µM on rat 5HT2C receptor (Table 3b, read-out: r5HT2C Ki).
For `COCC1=C(C(=O)OC)[C@H](c2ccc(F)c(F)c2)N(C(=O)NCCCN2CCC(c3cccc(NC(C)=O)c3)CC2)C(=O)N1` [Example 10, (+)-1,2,3,6-TETRAHYDRO-1-{N-[4-(3,-ACETAMIDO)-PHENYLPIPERIDIN-1-YL]PROPYL}CARBOXAMIDO-4-METHOXYMETHYL-6-(3,4-DIFLUORO-PHENYL)-2-OXOPYRIMIDINE-5-CARBOXYLIC ACID METHYL ESTER], the Ki at human GALR2 receptor (Table 3a, read-out: hGALR2 Ki) was above 50 µM; at human GALR2 receptor (Table 3b, read-out: hGALR2 Ki), above 50 µM; on rat 5HT2C receptor (Table 3a, read-out: r5HT2C Ki), 29.6 µM; in test [1] (Table 3e, read-out: hH1 Ki), 4.88 µM; in test [2] (Table 3e, * = >50000, read-out: hH2 Ki), above 50 µM. Besides, the Kb at human MCH1 receptor (intracellular calcium mobilization assay, read-out: antagonist potency (Kb)) was 0.3 nM.
For `CCCCN(CCCC)c1ccc(CNC[C@H]2CC[C@H](NC(=O)c3cccc4ccccc34)CC2)cc1` [Example 13, N1-[4-([4-(DIBUTYLAMINO)BENZYL]AMINOMETHYL)CYCLOHEXYL]-1-NAPHTH-AMIDE], the Ki on human GALR2 receptor (Table 3a, read-out: hGALR2 Ki) is 4.73 µM; on human GALR2 receptor (Table 3b, read-out: hGALR2 Ki) it was 4.73 µM; on rat 5HT2C receptor (Table 3a, read-out: r5HT2C Ki), 25 µM; at rat 5HT2C receptor (Table 3b, read-out: r5HT2C Ki), 25 µM.
On to `COC(=O)C1=C(C)NC(=O)N(C(=O)NCCCN2CCC3(CC2)OCc2ccccc23)C1c1ccc(F)c(F)c1` (centres unmarked) [Example 20, 4-(3,4-DIFLUORPHENYL)-6-METHYL-2-OXO-3-{[3-(4-SPIRO[ISOBENZOFURAN-1(3H),4′-PIPERIDINE]PROPYL}-1,2,3,4-TETRAHYDROPYRIMIDINE-5-CARBOXYLIC ACID METHYL ESTER], for which the Ki is above 50 µM at human GALR2 receptor; above 50 µM on human GALR2 receptor (read-out: hGALR2 Ki, Table 3b); 15.1 µM on rat 5HT2C receptor (Table 3a, read-out: r5HT2C Ki); 15.1 µM on rat 5HT2C receptor (Table 3b, read-out: r5HT2C Ki); 0.039 µM in test [1]; 0.099 µM at human α2A adrenoceptor. In addition, in test [2], affinity was put at a Ki of 1.91 µM.
Regarding `O=C(CCCN1CCC(O)(c2ccc(Cl)cc2)CC1)c1ccc(Cl)cc1` [Example 29], the Ki at human GALR2 receptor is above 50 µM; on human GALR2 receptor (read-out: hGALR2 Ki, Table 3b) it was above 50 µM; at rat 5HT2C receptor, above 50 µM; on rat 5HT2C receptor (read-out: r5HT2C Ki, Table 3b), above 50 µM.
